Among the data in patent publication US20240175062A1, “LIPOXYGENASE-BASED RECOMBINANT MICROORGANISMS, AND METHOD FORPREPARING HYDROXY FATTY ACIDS AND SECONDARY FATTY ALCOHOLS USING SAME” (EWHA UNIVERSITY - INDUSTRY COLLABORATION FOUNDATION, priority 2021, published 2024) are Km and kcat/Km values, retold here.

Data set [1] deals with Enhygromyxa salina-derived lipoxygenase (EsLOX) (Enhygromyxa salina, UniProt A0A0C2CV93). Description: Enzymatic activity of purified EsLOX for long-chain unsaturated fatty acids (UV-vis spectrophotometer, 234 nm). Format: biochemical. The settings on record: substrate of purified EsLOX, 50 mM EPPS (pH 8.5) buffer. The procedure: The culture medium was centrifuged at 13,000×g at 4° C. for 30 minutes and washed twice with phosphate-buffered saline, and added with 50 mM monosodium phosphate (NaH2PO4), 300 mM sodium chloride, 10 mM imidazole, 0.1 mM protease inhibitor (phenylmethylsulfonyl fluoride), and 400 U lysozyme, and then the cell solution was lysed with a sonicator. The cell lysate was centrifuged at 13,000×g at 4° C. for 10 minutes, and then the pellet was removed to separate only a cell supernatant. The cell supernatant was flowed onto a resin packed with an Ni-NTA agarose resin (Qiagen). The protein bound to the resin was washed with a wash buffer (50 mM NaH2PO4, 300 mM NaCl, 20/30 mM imidazole), eluted with an elution buffer (50 mM NaH2PO4, 300 mM NaCl, 250 mM imidazole) to purify Enhygromyxa lipoxygenase. Thereafter, a sample containing the purified Enhygromyxa lipoxygenase was prepared by obtaining a concentrated protein solution using 30 kDa Amicon.
Then, the enzymatic activity of the enzyme sample was measured using a UV-vis spectrophotometer (234 nm). More specifically, as the linoleic acid dioxygenation reaction progressed, the rate of increase in absorbance of a product, conjugated diene, was measured using the spectrophotometer, and the reaction time was measured for each of 10 seconds up to 180 seconds.

Substrate in data set [2]: CCCCC/C=C\C/C=C\C/C=C\C/C=C\CCCC(=O)O
Description: cells, lysate or membranes named. The settings on record: other: substrate of purified EsLOX, 234 nm, 50 mM EPPS (pH 8.5) buffer.

Like-named read-outs stand apart in the source and are kept apart here.

For the molecule `CCCCC/C=C\C/C=C\CCCCCCCC(=O)O` [Linoleic acid, linoleic acid], in data set [1] (read-out: KM), the Km came to 90 µM.

`CC/C=C\C/C=C\C/C=C\CCCCCCCC(=O)O` [α-Linolenic acid, α-linolenic acid]: the Km in data set [1] (read-out: KM) is 120 µM.

`CCCCC/C=C\C/C=C\C/C=C\CCCCC(=O)O` [γ-Linolenic acid, γ-linolenic acid]: the Km in data set [1] was 130 µM.

B1: Enhygromyxa salina-derived lipoxygenase (EsLOX) (Enhygromyxa salina) (protein)
chain: MSNIPTLPQNDPRPEQRAQQLDKARETYKYADLLPPLAFCEGVPKPDTPSAAWLVTVGKVAAAVALNAVANRRAWKRGDHDEEDASFDVGGTSEEDQNEAGHNSFLARLENFDEEAVSFAPGDEPSVLDEVNERVAAILGAKPNRHVPPAQADDDDNGDDGDGDESFGVLDGNVSKDGPNGRPQSMDDYANLFRRITLPPIASTWKNDSAFAAYRVAGPNASMIQRITELPDNFAVTDAHYKQAMGEGDSLDAAKAEGRLFLADWKLIGETLVNNTYKGAQKTVYAPLALFAVPPGGGSLAPVAIQPGQTPSPTNKIYATQDGNDWLAAKSAVQVAEGNYHELVSHLGLTHLLLEPIVMATYRQLAQHHPIYMLLIPHFEGTLSINNSAATNLIAPGGAVDLIFAGTIESEHQLALAALKRHDFMRSGLPDTIEQRGVGDTSVLTDYPYRDDGLKIWANIERWVTAYVNNYYISEANVTQDTELQAWAAVLSKPFAEGGVSGFGPIDTRAALIFACTKVIFTASAEHSAVNFPQKDLMSYAPAITGAGWTAAPPSQGPLKDFQPPLELAELQAEFLYLLGGVHHTKLGFYNSNSFPYRAWFKDPKITAELLPAFQRDLAASEELIVAANATRTFKYTYMIPSTIPMSINI
As to B1, in data set [2], the Km was found to be 80 µM and the kcat/Km is 290000 M⁻¹ s⁻¹.
